This is an account of results in ChEMBL document CHEMBL5665440, “ASAP - In vitro liver microsomal stability” (2024).

A word on the half-life: it is the time needed for the level to fall by half in the phase considered. Higher therefore signals slow decline. In general, microsomal CLint refers to a measure of how fast metabolising enzymes remove a compound, apart from limits set by blood flow. Higher therefore signals faster metabolism.

A short description of series [1]: Mouse liver microsomal stability of compound in microsomal protein, PBS buffer pH 7.4, NADPH, glucose-6-phosphate and glucose-6-phosphate dehydrogenase media. Aliquotes were taken at 5 time points and after stopping the reaction, supernatants were analyzed using HPLC coupled with a tandem mass spectrometer. The elimination constant, half-life, and intrinsic clearance are determined as results using linear regression analysis. It counts as ADME, microsomes, Microsome. To be noted: for half-life / microsomal CLint: liver microsomes; for Remaining / Remaining (without cofactor): microsomes.

Series [2] can be described thus: Human liver microsomal stability of compound in microsomal protein, PBS buffer pH 7.4, NADPH, glucose-6-phosphate and glucose-6-phosphate dehydrogenase media. Aliquotes were taken at 5 time points and after stopping the reaction, supernatants were analyzed using HPLC coupled with a tandem mass spectrometer. The elimination constant, half-life, and intrinsic clearance are determined as results using linear regression analysis. In kind it is ADME, microsomes, Microsome. To be noted: for half-life / microsomal CLint: liver microsomes. (Microsomes from liver hold many membrane-bound enzymes, among them those of drug oxidation.)

“And” between values parts separate entries of the source, which are not always exact repeats. Equal entries are not always repeated. A value given as a limit tells only on which side of the number the result lay.
For Remaining (without cofactor) in this document: time not given here.
For Remaining in this document: time not given here.

With `CC(C)NC(=O)[C@H](Nc1ccc2c(c1)CNC2)c1cc(Cl)cc2[nH]c(-c3ccccc3)nc12`, in series [1], the half-life came out at 2.52 h, the microsomal CLint came to 11 µL/min/mg, the Remaining was 84% and the “Remaining (without cofactor)” value was 98.417%. In series [2] (microsomes), the CLint is 23.218 µL/min/mg and < 10 µL/min/mg; the Remaining is 67.537% and 102.526%; the “Remaining (without cofactor)” value was 101.395% and 117.42%; the T1/2 is 1.199 h and > 2.888 h.
`CSc1cc2c(cc1NC(=O)c1cc(F)cc3[nH]ncc13)CNC2`: in series [1], the half-life worked out at 0.212 h, the microsomal CLint was 131 µL/min/mg, the Remaining is on record as 11.381% and the “Remaining (without cofactor)” value is listed as 93.133%. In addition, in series [2], the half-life was over 2.89 h and the microsomal CLint is under 10 µL/min/mg. In series [2] (microsomes), the Remaining amounted to 88.673% and the “Remaining (without cofactor)” value stood at 103.344%.
As for `O=C(NCC(F)F)[C@H](Nc1ccc2c(c1)CNC2)c1cc(Br)cc2nc[nH]c12`, in series [1], the half-life is over 2.89 h, the microsomal CLint is under 10 µL/min/mg, the Remaining was 93.302% and the “Remaining (without cofactor)” value is listed as 93.905%. In series [2], this compound yielded a half-life of over 2.89 h and a microsomal CLint of under 10 µL/min/mg. In addition, in series [2] (microsomes), the Remaining is 100.118% and the “Remaining (without cofactor)” value is on record as 106.151%.
In the case of `O=C(Nc1ccc2c(c1)CNC2)c1ccc2[nH]cc(C3CCNCC3)c2c1`, in series [1], the half-life is over 2.89 h, the microsomal CLint was under 10 µL/min/mg, the Remaining is given as 86.057% and the “Remaining (without cofactor)” value was 94.216%. In series [2], this compound yielded a half-life of over 2.89 h and a microsomal CLint of under 10 µL/min/mg. In addition, in series [2] (microsomes), the Remaining is 86.755% and the “Remaining (without cofactor)” value stood at 110.939%.
Consider `O=C(NCCCF)[C@H](Nc1ccc2c(c1)CNC2)c1cc(Cl)cc(C2CC2)c1`, for which, in series [1], the half-life was determined as 1.6 h, the microsomal CLint turned out to be 17.4 µL/min/mg, the Remaining came out at 76.547% and the “Remaining (without cofactor)” value was found to be 97.886%. Also, in series [2], the half-life stood at 1.75 h and the microsomal CLint is 15.9 µL/min/mg. In series [2] (microsomes), the Remaining came out at 77.399% and the “Remaining (without cofactor)” value is 95.756%.
With `O=C(NCC(F)F)[C@H](Nc1cc2c(cc1Br)CNC2)c1cc(Cl)cc(C2CC2)c1`, in series [1], the half-life was 1.21 h, the microsomal CLint was found to be 22.9 µL/min/mg, the Remaining is 69.524% and the “Remaining (without cofactor)” value stood at 97.036%. In addition, in series [2], the half-life is 1.08 h and the microsomal CLint amounted to 25.9 µL/min/mg. Also, in series [2] (microsomes), the Remaining worked out at 67.209% and the “Remaining (without cofactor)” value turned out to be 94.723%.
On to `CNC(=O)c1cc(Br)cc([C@H](Nc2ccc3c(c2)CNC3)C(=O)NCC(F)F)c1`, for which, in series [1], the half-life was over 2.89 h, the microsomal CLint was under 10 µL/min/mg, the Remaining amounted to 92.112% and the “Remaining (without cofactor)” value was 95.032%. Besides, in series [2], the half-life was over 2.89 h and the microsomal CLint was under 10 µL/min/mg. In series [2] (microsomes), the Remaining is 96.629% and the “Remaining (without cofactor)” value was 106.229%.
With `COc1ccc(-c2nc3c(C(=O)Nc4ccc5c(c4)CNC5)cc(F)cc3[nH]2)nn1`, in series [1], the half-life worked out at 1.64 h, the microsomal CLint amounted to 16.9 µL/min/mg, the Remaining is listed as 73.587% and the “Remaining (without cofactor)” value stood at 92.469%. In series [2], the half-life is over 2.89 h and the microsomal CLint is under 10 µL/min/mg. In series [2] (microsomes), the Remaining turned out to be 87.708% and the “Remaining (without cofactor)” value is reported as 99.462%.
Take `CCCCNC(=O)[C@H](Nc1ccc2c(c1)CNC2)c1cc(Cl)cc(C2CC2)c1`: in series [1], the half-life was 1.43 h, the microsomal CLint is 19.5 µL/min/mg, the Remaining is given as 73.231% and the “Remaining (without cofactor)” value stood at 102.386%. In series [2], this compound returned a half-life of 1.72 h and a microsomal CLint of 16.2 µL/min/mg. In series [2] (microsomes), the Remaining stood at 75.607% and the “Remaining (without cofactor)” value stood at 97.272%.
As to `COc1cc(Cl)cc([C@H](Nc2ccc3c(c2)CNC3)C(=O)NCC(F)F)c1`, in series [1], the half-life is 2.16 h, the microsomal CLint came out at 12.9 µL/min/mg, the Remaining came to 81.928% and the “Remaining (without cofactor)” value is on record as 96.342%. In series [2], the half-life was over 2.89 h and the microsomal CLint is under 10 µL/min/mg. Further, in series [2] (microsomes), the Remaining is 91.954% and the “Remaining (without cofactor)” value is recorded as 107.924%.
As to `O=C(NCC(F)F)[C@H](Nc1cnc2c(c1)CNC2)c1cc(Cl)cc(C2CC2)c1`, in series [1], the half-life was over 2.89 h, the microsomal CLint is under 10 µL/min/mg, the Remaining was found to be 87.443% and the “Remaining (without cofactor)” value was 105.088%. Also, in series [2], the half-life is over 2.89 h and the microsomal CLint was under 10 µL/min/mg. Also, in series [2] (microsomes), the Remaining was 91.952% and the “Remaining (without cofactor)” value was determined as 110.51%.
For `Cc1cc([C@H](Nc2ccc3c(c2)CNC3)C(=O)NCC(F)F)cc(C(F)(F)F)c1`, in series [1], the half-life amounted to 2.49 h, the microsomal CLint came out at 11.2 µL/min/mg, the Remaining is reported as 85.983% and the “Remaining (without cofactor)” value worked out at 88.687%. In series [2], this compound gave a half-life of over 2.89 h and a microsomal CLint of under 10 µL/min/mg. For the same compound, in series [2] (microsomes), the Remaining was 89.032% and the “Remaining (without cofactor)” value is listed as 105.687%.
As for `O=C(NCC(F)F)[C@H](Nc1ccc2c(c1)CNC2)c1cc(Cl)cc2c1CCC2`, in series [1], the half-life was found to be 0.882 h, the microsomal CLint stood at 31.6 µL/min/mg, the Remaining was found to be 60.623% and the “Remaining (without cofactor)” value stood at 103.851%. In series [2], this compound showed a half-life of 1.99 h and a microsomal CLint of 14 µL/min/mg. Moreover, in series [2] (microsomes), the Remaining is on record as 80.194% and the “Remaining (without cofactor)” value amounted to 105.323%.
As to `Cn1ncc2c(C(=O)Nc3ccc4c(c3)CNC4)cc(Cl)cc21`, in series [1], the half-life was found to be 1.09 h, the microsomal CLint turned out to be 25.5 µL/min/mg, the Remaining turned out to be 63.701% and the “Remaining (without cofactor)” value turned out to be 92.242%. In series [2], this compound displayed a half-life of over 2.89 h and a microsomal CLint of under 10 µL/min/mg. Besides, in series [2] (microsomes), the Remaining is given as 91.353% and the “Remaining (without cofactor)” value turned out to be 101.456%.
Regarding `COc1cc(C#N)cc([C@H](Nc2ccc3c(c2)CNC3)C(=O)NCC(F)F)c1`, in series [1], the half-life was over 2.89 h, the microsomal CLint is under 10 µL/min/mg, the Remaining stood at 90.033% and the “Remaining (without cofactor)” value is given as 104.77%. In addition, in series [2], the half-life was over 2.89 h and the microsomal CLint was under 10 µL/min/mg. Moreover, in series [2] (microsomes), the Remaining came out at 93.073% and the “Remaining (without cofactor)” value stood at 104.062%.
Regarding `Nc1ccncc1-c1cc(F)cc(C(=O)Nc2ccc3c(c2)CNC3)c1`, in series [1], the half-life was over 2.89 h, the microsomal CLint is under 10 µL/min/mg, the Remaining was 87.356% and the “Remaining (without cofactor)” value amounted to 106.991%. For the same compound, in series [2], the half-life is over 2.89 h and the microsomal CLint is under 10 µL/min/mg. Further, in series [2] (microsomes), the Remaining worked out at 84.663% and the “Remaining (without cofactor)” value is 102.026%.
